Patent US10052331B2, “3-(3H-imidazo[4,5-C]pyridin-2-yl)-1H-pyrazolo[3,4-C]pyridine and therapeutic uses thereof” (Samumed, LLC, priority 2014, dated 2018)

Experiments:
Format in all cases: cell-based
[1] = test system: Wnt activity (Wnt-responsive Sp5 promoter-luciferase reporter in SW480 cells); test: Wnt activity screening assay: Sp5-Luc reporter gene in SW480 colon carcinoma cells; details: Homo sapiens
Summary of the method: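 IC50 values come from variable-slope four-parameter fits of luciferase signal normalized to DMSO wells. Stable Sp5-Luc reporter SW480 colon carcinoma cells were exposed to compounds in a 3-fold dilution series (source plates from 10 mM stock) for forty-two hours at 37 °C.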

[2] = test system: primary human mesenchymal stem cells (hMSCs); test: Chondrogenesis induction in primary human mesenchymal stem cells (nodule imaging, Rhodamine B/Nile Red); details: 144 h, 6 days; for EC (100% TGF-beta3 activity): concentration required to induce chondrogenesis equivalent to TGF-β3 positive control, read-out: Conc (nM) of 100% TGF-β3 activity; for Emax: relative to TGF-β3 (10 ng/mL) positive control, read-out: Max. Activity as % TGF-β3 activity
Method: The above synthesized compounds were screened using primary human mesenchymal stem cells (hMSCs) to determine their ability to induce chondrogenesis (process by which cartilage is developed).
Primary human mesenchymal stem cells (hMSCs) were purchased from Lonza (Walkersville, Md.) and expanded in Mesenchymal Stem Cell Growth Media (Lonza). Cells between passage 3 and 6 were used for the experiments.
Each compound was dissolved in DMSO as a 10 mM stock and used to prepare compound source plates. Serial dilution (1:3, 6-point dose-response curves from 2700 nM to 10 nM) and compound transfer was performed using the ECHO 550 (Labcyte, Sunnyvale, Calif.) into 96-well clear bottom assay plates (Greiner Bio-One) with appropriate DMSO backfill for a final DMSO concentration of 0.03%. hMSCs were plated at 20,000 cells/well in 250 μL/well Incomplete Chondrogenic Induction Medium (Lonza; DMEM, dexamethasone, ascorbate, insulin-transferrin-selenium [ITS supplement], gentamycin-amphotericin [GA-1000], sodium pyruvate, proline and L-glutamine). TGF-β3 (10 ng/mL) was used as a positive control for differentiation while negative control wells were treated with 75 nL DMSO for normalization and calculating EC50 values. Cells were incubated at 37° C. and 5% CO2 for 6 days. To image chondrogenic nodules, the cells were fixed using 4% formaldehyde (Electron Microscopy Sciences), and stained with 2 μg/mL Rhodamine B (Sigma-Aldrich) and 20 μM Nile Red (Sigma-Aldrich) [Johnson K., et. al, A Stem Cell-Based Approach to Cartilage Repair, Science, (2012), 336(6082), 717-721]. The nodules imaged (4 images per well at 4× magnification) by excitation at 531 nm and emission at 625 nm and quantified using the CellInsight CX5 (Thermo Scientific). Number of nodules in each well was normalized to the average of 3 DMSO treated wells on the same plate using Excel (Microsoft Inc.). The normalized averages (fold change over DMSO) of 3 replicate wells for each compound concentration were calculated. Due to solubility limitations of some of the compounds, curve fitting was incomplete leading to inaccurate EC50 determinations.
Using TGF-03 as a positive control, the concentration of test compounds required to induce equivalent levels of chondrogenesis is reported. In addition, the maximum activity of each compound and the respective dose that each compound reached maximum chondrogenesis activity is reported.

[3] = test system: primary human fibroblasts derived from IPF patients (LL29 cells); test: Inhibition of fibrotic process: αSMA staining in TGF-β1-treated primary human fibroblasts from IPF patients (LL29 cells); details: Fibroblast, 96 h, LL29 cells treated with TGF-β1 (20 ng/mL), 4 days, 11-point dose-response from 10 μM to 1.87 nM, read-out: Inhibition of fibrosis EC50
Summary of the method: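 LL29 IPF lung fibroblasts in F12 with 1% FBS, compound (11-point, 10 μM to 1.87 nM, 0.1% DMSO) plus TGF-β1 20 ng/mL for 4 days at 37° C. αSMA-positive % of SYTOX-negative cells by immunofluorescence imaging, normalized to TGF-β1 wells; EC50 from non-linear regression of triplicates.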

ARPE-19 cells = test: Transdifferentiation of ARPE-19 cells into eye neuronal cells [photoreceptors] (PAX6 staining); details: Homo sapiens, 40 hours, normalized to DMSO
Method: The above synthesized compounds were screened using ARPE-19 cells [a spontaneously arising retinal pigment epithelia (RPE) cell line] to determine their ability to transdifferentiate ARPE-19 into eye neuronal cells [photoreceptors].
ARPE-19 cells are cultured in standard culture medium containing Dulbecco's Modified Eagle's Medium and Ham's F12 Nutrient Mixture (DMEM/F12) mix (1:1)+GlutaMax with 1% penicillin-Streptomycin and 10% FBS (Fetal Bovine Serum). Cells are incubated at 37° C. with 5% CO2. Cells are trypsinized and plated onto 384-well pre-spotted plate at a density of 3000 cells/well in 50 uL of media. Plating media: DMEM/F12 (1:1)+3% charcoal filtered-FBS+GlutaMax+1% pen/Strep. Cells are incubated at 37° C. with 5% CO2. At 40 hours, cells were fixed for 15 min with 10% Buffered Formalin. Cells were then washed 3 times with PBS for 5 min each, permeablize using 0.3% Triton X-100 in 1×PBS for 30 min, block for 1 hr with 2% BSA in 1×PBS with 0.1% Triton X-100. The primary antibody (1:100 PAX6 Santa Cruz Biotech; sc-81649) was diluted and 10 μL/well was added to the cells. The cells were incubated overnight at 4° C. […] Readings were normalized to DMSO only treated cells, and normalized activities were utilized for EC50 calculations using the dose-response log (activator) vs. response-variable slope (four parameters) nonlinear regression feature available in GraphPad Prism 5.0 or 6.0.

| IC50 [1] [µM] | Compound | EC (100% TGF-beta3 activity) [2] [nM] | Emax [2] [%] | EC50 [3] [µM] | EC50 (ARPE-19 cells) [µM] |
| --- | --- | --- | --- | --- | --- |
| 0.0239 | CCCC(=O)Nc1cncc(-c2cc3c(-c4nc5c(-c6cc(F)cc(CNS(C)(=O)=O)c6)cncc5[nH]4)n[nH]c3cn2)c1 [Compound 407, N-(5-(3-(7-(3-Fluoro-5-(methylsulfonamidomethyl)phenyl)-3H-imidazo[4,5-c]pyridin-2-yl)-1H-pyrazolo[3,4-c]pyridin-5-yl)pyridin-3-yl)butyramide] | 79.2 | 30 | > 10 |  |
| 0.07 | Cn1cc(-c2cc3c(-c4nc5c(-c6cccc(F)c6)cncc5[nH]4)n[nH]c3cn2)cn1 [Compound 888, 3-(7-(3-Fluorophenyl)-3H-imidazo[4,5-c]pyridin-2-yl)-5-(1-methyl-1H-pyrazol-4-yl)-1H-pyrazolo[3,4-c]pyridine] | 71 | 100 | ≤ 0.009 |  |
| 0.103 | NC1CN(c2cncc(-c3cc4c(-c5nc6c(-c7cccc(F)c7)cncc6[nH]5)n[nH]c4cn3)n2)C1 [Compound 890, 1-(6-(3-(7-(3-Fluorophenyl)-3H-imidazo[4,5-c]pyridin-2-yl)-1H-pyrazolo[3,4-c]pyridin-5-yl)pyrazin-2-yl)azetidin-3-amine] |  |  | 0.088 | 0.009 |
| 0.437 | CN(C)CCOc1cncc(-c2cc3c(-c4nc5c(-c6cccc(F)c6)cncc5[nH]4)n[nH]c3cn2)c1 [Compound 895, 2-((5-(3-(7-(3-Fluorophenyl)-3H-imidazo[4,5-c]pyridin-2-yl)-1H-pyrazolo[3,4-c]pyridin-5-yl)pyridin-3-yl)oxy)-N,N-dimethylethan-1-amine] |  |  | ≥ 9.99 | 0.162 |
| 0.031 | COc1cncc(-c2cc3c(-c4nc5c(-c6cccc(F)c6)cncc5[nH]4)n[nH]c3cn2)c1 [Compound 896, 3-(7-(3-Fluorophenyl)-3H-imidazo[4,5-c]pyridin-2-yl)-5-(5-methoxypyridin-3-yl)-1H-pyrazolo[3,4-c]pyridine] | 140 | 300 | ≤ 0.009 |  |
